The values below come from ChEMBL document CHEMBL1153666, “K-13 and of4949: Evaluation of key partial structures and pharmacophore delineation” (Bioorg Med Chem Lett, 1993).

Calls of active or inactive are those of the source. No cut-off for these calls is given here.

The target in assay [1] is T1, Angiotensin-converting enzyme (Oryctolagus cuniculus) (UniProt P12822).
T1 sequence (whole entry): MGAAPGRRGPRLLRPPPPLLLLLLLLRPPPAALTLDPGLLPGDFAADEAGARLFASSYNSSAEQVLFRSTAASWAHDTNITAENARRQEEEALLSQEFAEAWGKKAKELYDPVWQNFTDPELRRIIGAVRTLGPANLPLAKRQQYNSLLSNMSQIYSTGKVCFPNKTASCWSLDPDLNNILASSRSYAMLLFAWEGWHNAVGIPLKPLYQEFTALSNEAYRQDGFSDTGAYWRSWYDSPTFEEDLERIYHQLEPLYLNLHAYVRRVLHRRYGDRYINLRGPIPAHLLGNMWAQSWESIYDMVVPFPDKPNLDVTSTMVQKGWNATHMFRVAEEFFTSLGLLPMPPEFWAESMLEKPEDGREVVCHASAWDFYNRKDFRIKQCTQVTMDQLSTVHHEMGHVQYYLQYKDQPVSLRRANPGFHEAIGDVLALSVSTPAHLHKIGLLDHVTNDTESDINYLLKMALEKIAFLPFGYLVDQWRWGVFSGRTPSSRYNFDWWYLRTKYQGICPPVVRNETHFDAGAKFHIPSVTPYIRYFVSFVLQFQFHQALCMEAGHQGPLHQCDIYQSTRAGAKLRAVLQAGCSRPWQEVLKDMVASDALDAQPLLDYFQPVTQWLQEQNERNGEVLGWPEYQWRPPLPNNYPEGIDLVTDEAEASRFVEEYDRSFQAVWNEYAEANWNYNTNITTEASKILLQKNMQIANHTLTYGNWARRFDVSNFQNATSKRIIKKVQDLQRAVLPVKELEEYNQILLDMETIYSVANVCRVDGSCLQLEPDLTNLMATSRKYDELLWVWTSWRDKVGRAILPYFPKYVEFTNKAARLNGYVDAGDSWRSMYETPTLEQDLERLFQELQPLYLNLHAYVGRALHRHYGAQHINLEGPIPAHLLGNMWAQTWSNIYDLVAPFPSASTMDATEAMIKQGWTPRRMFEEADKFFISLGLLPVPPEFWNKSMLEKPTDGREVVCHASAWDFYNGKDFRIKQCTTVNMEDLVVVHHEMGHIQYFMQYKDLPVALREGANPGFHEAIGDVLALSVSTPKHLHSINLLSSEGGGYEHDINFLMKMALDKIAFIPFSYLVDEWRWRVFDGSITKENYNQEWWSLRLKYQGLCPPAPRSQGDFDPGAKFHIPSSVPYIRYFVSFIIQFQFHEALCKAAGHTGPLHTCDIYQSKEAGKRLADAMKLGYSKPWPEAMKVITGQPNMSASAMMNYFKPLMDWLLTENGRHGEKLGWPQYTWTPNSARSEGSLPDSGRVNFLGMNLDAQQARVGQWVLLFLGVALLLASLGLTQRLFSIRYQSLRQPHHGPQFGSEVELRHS
The experiment in a line: Tested for inhibitory concentration that causes inhibition of Angiotensin I converting enzyme obtained from rabbit lung acetone powder extract. Conditions: concentration not given here.

For assay [2], the system named is P388. The experiment in a line: Tested for concentration that causes 50% inhibition of P388 leukemic cell growth, was determined in vitro. The class given is functional, cell-based. The conditions noted are these: Mus musculus.
Assay [3] addresses T1, Angiotensin-converting enzyme (Oryctolagus cuniculus). The experiment in a line: Tested for percent inhibitory concentration that cause inhibition of Angiotensin I converting enzyme obtained from rabbit lung acetone powder extract at 100 ug/mL.
In assay [4] the target is T2, Aminopeptidase B (Rattus norvegicus, UniProt O09175).
T2 sequence (O09175 whole entry): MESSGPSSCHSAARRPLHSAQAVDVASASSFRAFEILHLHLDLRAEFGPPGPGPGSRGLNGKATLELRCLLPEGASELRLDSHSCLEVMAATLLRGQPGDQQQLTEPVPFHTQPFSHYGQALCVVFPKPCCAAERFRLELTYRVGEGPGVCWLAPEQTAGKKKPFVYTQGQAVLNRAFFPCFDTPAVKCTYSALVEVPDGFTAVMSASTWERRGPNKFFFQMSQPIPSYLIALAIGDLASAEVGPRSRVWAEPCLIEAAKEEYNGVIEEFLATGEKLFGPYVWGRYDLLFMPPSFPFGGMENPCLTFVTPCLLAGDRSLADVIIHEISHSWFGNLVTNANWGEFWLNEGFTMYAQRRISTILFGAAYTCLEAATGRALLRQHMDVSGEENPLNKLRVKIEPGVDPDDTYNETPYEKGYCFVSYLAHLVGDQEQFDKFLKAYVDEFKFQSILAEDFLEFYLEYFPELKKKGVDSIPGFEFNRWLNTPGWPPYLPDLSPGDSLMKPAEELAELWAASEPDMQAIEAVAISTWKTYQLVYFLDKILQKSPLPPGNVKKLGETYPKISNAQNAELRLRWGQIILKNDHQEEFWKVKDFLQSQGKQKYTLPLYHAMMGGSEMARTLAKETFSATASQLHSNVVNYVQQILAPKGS
The assay is described as follows: Tested for concentration that causes 50% inhibition of rat liver aminopeptidase B, was determined. Conditions: read-out: I50 (converted).

The target in assay [5] is T3, Angiotensin-converting enzyme (Oryctolagus cuniculus, UniProt P12822).
T3 sequence (P12822 whole entry): T1 sequence (whole entry)
The assay is described as follows: Inhibitory concentration against Angiotensin I converting enzyme obtained from rabbit lung acetone powder extract. Conditions: read-out: I50 (converted).

Assay [6] deals with T1, Angiotensin-converting enzyme (Oryctolagus cuniculus). The experiment in a line: Inhibition of Angiotensin I converting enzyme from rabbit lung acetone powder extract; Inactive.
Assay [7] deals with T2, Aminopeptidase B. The assay is described as follows: Tested for concentration that causes 50% inhibition of rat liver aminopeptidase B, was determined; Inactive.
Assay [8] deals with T1, Angiotensin-converting enzyme (Oryctolagus cuniculus). The assay is described as follows: Tested for percent inhibitory concentration that cause inhibition of Angiotensin I converting enzyme obtained from rabbit lung acetone powder extract at 200 ug/mL.
In assay [9] the target is T4, Aminopeptidase B (Rattus norvegicus) (UniProt O09175).
T4 sequence (whole entry): T2 sequence (O09175 whole entry)
The assay is described as follows: Tested for percent inhibitory concentration that cause inhibition of rat liver aminopeptidase B at 220 ug/mL.

The target of assay [10] is T3, Angiotensin-converting enzyme. The experiment in a line: Tested for inhibitory concentration that causes inhibition of Angiotensin I converting enzyme obtained from rabbit lung acetone powder extract). Conditions: read-out: I50 (converted).
Assay [11] has the same target. The experiment in a line: Tested for inhibitory constant against Angiotensin I converting enzyme.
In assay [12] the test system is P388. The experiment in a line: Tested in vitro for concentration that causes 50% inhibition of P388 leukemic cell growth. The class given is functional, cell-based. The conditions noted are these: Mus musculus.
For assay [13], the target named is T4, Aminopeptidase B (Rattus norvegicus). The assay is described as follows: Percent inhibition of rat liver aminopeptidase B by 230 ug/mL was determined.

In the case of `O=C1CCc2ccc(cc2)Oc2cccc(c2)CCNC(=O)[C@H](Cc2ccc(O)cc2)N1`, the inhibition in assay [1] was 10%.
For the compound `NC(=O)C[C@@H]1NC(=O)[C@@H](N)Cc2ccc(O)c(c2)Oc2ccc(cc2)C[C@@H](C(=O)O)NC1=O`, the IC50 in the assay with P388 [2] is > 10 µg/mL; at Aminopeptidase B [4], 43.8 µM. For the same compound, in assay [3], the inhibition came out at 11%.
As for `COc1ccc2cc1Oc1ccc(cc1)CCNC(=O)[C@H](CC(N)=O)NC(=O)CC2`, in assay [5], the IC50 is 535 µM.
Take `COC(=O)[C@H](Cc1ccc(OCc2ccccc2)c(Oc2ccc(C[C@H](NC(=O)[C@H](CC(N)=O)NC(=O)OC(C)(C)C)C(=O)OC)cc2)c1)NC(=O)OCc1ccccc1`: in assay [6], the inhibition result was “inactive”.
On the same count and under the same terms, for `COC(=O)CCc1ccc(OC)c(Oc2ccc(CCNC(=O)[C@H](CC(N)=O)NC(=O)OC(C)(C)C)cc2)c1` the value was “inactive”; for `COC(=O)CCc1cccc(Oc2ccc(CCNC(=O)CNC(=O)OC(C)(C)C)cc2)c1`, “inactive”; for `COC(=O)CCc1ccc(O)c(Oc2ccc(CCNC(=O)[C@H](CC(N)=O)NC(=O)OC(C)(C)C)cc2)c1`, “inactive”.
Turning to `O=C1CCc2ccc(cc2)Oc2cc(ccc2O)CCNC(=O)[C@H](Cc2ccc(O)cc2)N1`, in assay [5], the IC50 was 11.2 µM.
In the case of `CC(=O)N[C@@H](Cc1ccc(Oc2cc(C[C@H](NC(=O)[C@H](Cc3ccc(O)cc3)NC(=O)OC(C)(C)C)C(=O)O)ccc2OCc2ccccc2)cc1)C(=O)O`, the inhibition entry in [6] is “inactive”.
On to `COc1ccc2cc1Oc1ccc(cc1)C[C@@H](C(=O)O)NC(=O)[C@H](CC(N)=O)NC(=O)[C@@H](N)C2`, for which the results for the IC50 (with P388 [2]; in assay [5]) were > 10 µg/mL and 149 µM, respectively.
For `COc1ccc2cc1Oc1ccc(cc1)C[C@@H](C(=O)O)NC(=O)[C@H](CC(N)=O)NC(=O)[C@@H](NC(=O)OCc1ccccc1)C2`, the IC50 in assay [5] was 182 µM.
As for `COC(=O)CCc1cccc(Oc2ccc(CCNC(=O)[C@H](CC(N)=O)NC(=O)OC(C)(C)C)cc2)c1`, in [6], the inhibition entry was “inactive”.
On to `NC(=O)C[C@@H]1NC(=O)CCc2ccc(O)c(c2)Oc2ccc(cc2)CCNC1=O`, for which the IC50 in assay [5] is 528 µM.
As for `COC(=O)[C@H](Cc1ccc(O)c(Oc2ccc(C[C@H](NC(=O)[C@H](CC(N)=O)NC(=O)OC(C)(C)C)C(=O)OC)cc2)c1)NC(=O)OCc1ccccc1`, the inhibition entry in assay [6] was “inactive”.
On to `COC(=O)[C@H]1Cc2ccc(O)c(c2)Oc2ccc(cc2)C[C@H](N)C(=O)N[C@@H](Cc2ccc(O)cc2)C(=O)N1`, for which, in assay [5], the IC50 was 1.15 µM.
As to `COC(=O)[C@@H]1Cc2ccc(cc2)Oc2cc(ccc2OC)C[C@H](NC(=O)OCc2ccccc2)C(=O)N[C@@H](CC(N)=O)C(=O)N1`, in [5], the IC50 is 210 µM.
As to `O=C1CCc2cccc(c2)Oc2ccc(cc2)CCNC(=O)CN1`, the inhibition entry in assay [6] was “inactive”.
On to `COC(=O)[C@@H]1Cc2ccc(cc2)Oc2cc(ccc2O)C[C@H](N)C(=O)N[C@@H](CC(N)=O)C(=O)N1`, for which the IC50 in assay [5] is 42.5 µM.
`N[C@@H](Cc1ccc(Oc2cc(C[C@H](N)C(=O)O)ccc2O)cc1)C(=O)O`: in the assay with P388 [2], the IC50 is > 10 µg/mL. Moreover, the I50 entry at Aminopeptidase B [7] is reported as “Not Active”. The compound further displayed an inhibition in assay [8] of 13%.
`COC(=O)[C@@H]1Cc2ccc(cc2)Oc2cc(ccc2OCc2ccccc2)C[C@H](NC(=O)OCc2ccccc2)C(=O)N[C@@H](CC(N)=O)C(=O)N1`: the inhibition in assay [9] was 14%.
`O=C1CCc2ccc(O)c(c2)Oc2ccc(cc2)CCNC(=O)CN1`: the inhibition result in assay [6] is “inactive”.
For the compound `NC(=O)C[C@@H]1NC(=O)CCc2cccc(c2)Oc2ccc(cc2)CCNC1=O`, in assay [6], the inhibition entry is “inactive”.
Take `COC(=O)[C@H]1Cc2ccc(O)c(c2)Oc2ccc(cc2)C[C@H](NC(C)=O)C(=O)N[C@@H](Cc2ccc(O)cc2)C(=O)N1`: in [5], the IC50 was 0.89 µM.
The same measure, in the same setting: for `COc1ccc2cc1Oc1ccc(cc1)C[C@H](NC(C)=O)C(=O)N[C@@H](Cc1ccc(O)cc1)C(=O)N[C@H](C(=O)O)C2` the value was 5.34 µM.
Still for that read-out and setting: the figure for `COC(=O)[C@@H]1Cc2ccc(cc2)Oc2cc(ccc2O)C[C@H](NC(=O)OCc2ccccc2)C(=O)N[C@@H](CC(N)=O)C(=O)N1` is 198 µM.
Consider `CC(=O)N[C@@H]1Cc2ccc(cc2)Oc2cc(ccc2O)C[C@H](C(=O)O)NC(=O)[C@H](Cc2ccc(O)cc2)NC1=O`, for which the IC50 in [10] was 0.183 µM; with P388 [12], > 10 µg/mL. The compound also yielded a Ki in [11] of 0.35 µM. In assay [13], this compound displayed an inhibition of 13%.
Consider `CC(C)(C)OC(=O)N[C@@H](Cc1ccc(Oc2cc(C[C@H](NC(=O)OCc3ccccc3)C(=O)O)ccc2OCc2ccccc2)cc1)C(=O)N[C@H](Cc1ccc(O)cc1)C(=O)O`, for which the inhibition entry in [6] is “inactive”.
